From patent publication US20060194268A1, “Method for measuring spinorphin” (priority 2005, published 2006)
No end group written: not given here.

What was measured:
[1] = tested on: spinorphin rabbit antibody; test: Competitive enzyme immunoassay, cross reactivity of spinorphin analogues; assay type: binding; details: for detection by the method of the present invention (reaction with spinorphin antibody): analogue as competitive compound for immobilized spinorphin; for IC50: competition with spinorphin immobilized on plate for spinorphin rabbit antibody; for Cross reactivity: ratio of spinorphin relative to IC50
in vitro = details: bovine, cerebrospinal or other body fluid
Experimental: A test was carried out to confirm whether the activity of spinorphin could be retained through the period from the step (B) to the step (E). Spinorphin (1 μg/mL) in TBS was dissolved in bovine cerebrospinal fluid. The cerebrospinal fluid was allowed to stand at room temperature for various time periods. The reaction was stopped, and the amount of spinorphin was measured according to the method mentioned in the above (2).

Row | Substance | detection by the method of the present invention (reaction with spinorphin antibody) [1] | further results
1 | LVVYP [spinorphin analogue] | could not be detected | –
2 | LVVYPW [spinorphin analogue] | could not be detected | –
3 | LVVYPWT [Spinorphin, Leu-Val-Val-Tyr-Pro-Trp-Thr] | – | IC50 [1]: 0.00064 ± 0.00061 µg/mL; Cross reactivity [1]: 1; remaining at 1 h, 1 μg/mL (in vitro): 98.8 ± 0.98%
4 | VVYPW [tynorphin] | could not be detected | –
5 | VVYPWT | – | IC50 [1]: 1.6 ± 5 µg/mL; Cross reactivity [1]: 0.0004
6 | VYPWT | – | IC50 [1]: >10 µg/mL; Cross reactivity [1]: <6.4 × 10^−5
7 | YPWT [hemorphin-4] | could not be detected | –

The next lines start with results.

Row | detection by the method of the present invention (reaction with spinorphin antibody) [1] | Substance | further results
8 | could not be detected | Pro-Trp-Thr [PWT] | –
9 | could not be detected | VVYP [spinorphin analogue] | –
10 | could not be detected | VYP | –
11 | could not be detected | VYPW [spinorphin analogue] | –
12 | could not be detected | YPW | –
